Measured values taken from paper PMC12196347, “Evaluating Triazole-Substituted Pyrrolopyrimidines as CSF1R Inhibitors” (Molecules, 2025).
Like-named read-outs stand apart in the source and are kept apart here.

How the values were obtained:
JAK1 = molecular target: T1, JAK1 (Homo sapiens, UniProt P23458); experiment: Kinase panel profiling: JAK1; type: biochemical; details: ATP equal to KM
T1 construct: purchased Thermo Fisher Scientific (Invitrogen) SelectScreen (Z'-LYTE)

LYN A = molecular target: T2, LYN A (Homo sapiens, UniProt P07948); experiment: Kinase panel profiling: LYN A; type: biochemical; details: ATP equal to KM
T2 construct: purchased Thermo Fisher Scientific (Invitrogen) SelectScreen (Z'-LYTE)

[1] = Mouse plasma protein binding; type: in vitro ADME; details: fraction bound, read-out: PPB (converted)
ITK = molecular target: T3, ITK (Homo sapiens, UniProt Q08881); experiment: Kinase panel profiling: ITK; type: biochemical; details: ATP equal to KM
T3 construct: purchased Thermo Fisher Scientific (Invitrogen) SelectScreen (Z'-LYTE)
T3 sequence (Q08881 1-620): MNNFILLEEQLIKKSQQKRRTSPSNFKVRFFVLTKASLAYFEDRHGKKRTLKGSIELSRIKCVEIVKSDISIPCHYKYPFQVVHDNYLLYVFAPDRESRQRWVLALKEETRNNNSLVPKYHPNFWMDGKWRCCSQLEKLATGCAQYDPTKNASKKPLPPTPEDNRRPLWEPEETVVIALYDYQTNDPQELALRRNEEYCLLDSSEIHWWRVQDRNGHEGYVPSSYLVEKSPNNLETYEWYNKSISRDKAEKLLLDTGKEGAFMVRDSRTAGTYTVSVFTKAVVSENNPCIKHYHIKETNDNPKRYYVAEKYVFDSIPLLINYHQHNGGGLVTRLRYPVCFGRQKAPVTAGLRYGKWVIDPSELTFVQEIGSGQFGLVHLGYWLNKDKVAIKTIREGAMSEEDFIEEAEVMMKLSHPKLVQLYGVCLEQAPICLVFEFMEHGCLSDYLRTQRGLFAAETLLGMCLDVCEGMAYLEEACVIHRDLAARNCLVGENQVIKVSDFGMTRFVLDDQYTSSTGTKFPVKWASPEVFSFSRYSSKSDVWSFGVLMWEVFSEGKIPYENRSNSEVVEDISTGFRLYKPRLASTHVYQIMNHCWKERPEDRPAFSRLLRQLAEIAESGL

MET (cMet) = molecular target: T4, MET (cMet) (Homo sapiens, UniProt P08581); experiment: Kinase panel profiling: MET; type: biochemical; details: ATP equal to KM
T4 construct: purchased Thermo Fisher Scientific (Invitrogen) SelectScreen (Z'-LYTE)
T4 sequence (P08581 25-1390): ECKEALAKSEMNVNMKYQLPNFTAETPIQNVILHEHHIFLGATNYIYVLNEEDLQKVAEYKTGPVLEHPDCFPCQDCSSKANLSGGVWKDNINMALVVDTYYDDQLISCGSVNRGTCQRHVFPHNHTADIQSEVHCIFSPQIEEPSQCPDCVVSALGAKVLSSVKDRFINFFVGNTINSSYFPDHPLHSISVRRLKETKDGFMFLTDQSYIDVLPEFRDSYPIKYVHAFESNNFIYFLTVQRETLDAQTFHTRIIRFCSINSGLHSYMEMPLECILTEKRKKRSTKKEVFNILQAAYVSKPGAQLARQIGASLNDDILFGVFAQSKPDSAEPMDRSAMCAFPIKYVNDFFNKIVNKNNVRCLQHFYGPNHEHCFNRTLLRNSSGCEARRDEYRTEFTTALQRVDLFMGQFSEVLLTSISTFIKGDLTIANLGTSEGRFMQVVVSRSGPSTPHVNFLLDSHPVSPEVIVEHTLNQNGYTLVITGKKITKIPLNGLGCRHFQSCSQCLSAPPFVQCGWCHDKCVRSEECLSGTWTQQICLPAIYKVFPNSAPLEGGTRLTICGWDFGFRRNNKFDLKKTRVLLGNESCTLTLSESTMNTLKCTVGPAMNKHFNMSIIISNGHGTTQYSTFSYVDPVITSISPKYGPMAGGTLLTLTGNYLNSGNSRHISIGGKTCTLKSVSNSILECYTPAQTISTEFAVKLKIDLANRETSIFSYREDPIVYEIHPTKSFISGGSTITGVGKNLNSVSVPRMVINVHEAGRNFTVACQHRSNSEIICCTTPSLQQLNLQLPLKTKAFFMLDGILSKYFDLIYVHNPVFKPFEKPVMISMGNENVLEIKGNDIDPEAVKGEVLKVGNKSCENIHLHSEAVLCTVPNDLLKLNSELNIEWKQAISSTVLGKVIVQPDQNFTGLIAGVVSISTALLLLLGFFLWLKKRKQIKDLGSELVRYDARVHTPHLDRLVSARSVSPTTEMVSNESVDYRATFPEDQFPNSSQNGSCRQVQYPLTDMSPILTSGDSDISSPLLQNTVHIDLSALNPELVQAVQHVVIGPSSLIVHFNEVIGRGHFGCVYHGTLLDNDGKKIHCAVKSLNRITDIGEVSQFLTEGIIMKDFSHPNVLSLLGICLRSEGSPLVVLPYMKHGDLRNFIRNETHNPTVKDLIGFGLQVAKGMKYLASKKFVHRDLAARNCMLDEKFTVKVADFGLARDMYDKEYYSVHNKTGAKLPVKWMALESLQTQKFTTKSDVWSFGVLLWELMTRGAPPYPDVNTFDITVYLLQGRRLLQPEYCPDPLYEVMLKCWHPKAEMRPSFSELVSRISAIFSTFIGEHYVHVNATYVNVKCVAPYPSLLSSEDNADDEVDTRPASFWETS

ROCK1 = ROCK1 (Homo sapiens, UniProt Q13464); experiment: Kinase panel profiling: ROCK1; type: biochemical; details: ATP equal to KM
SRC = SRC (Homo sapiens, UniProt P12931); experiment: Kinase panel profiling: SRC; type: biochemical; details: ATP equal to KM
NEK1 = molecular target: T5, NEK1 (Homo sapiens, UniProt Q96PY6); experiment: Kinase panel profiling: NEK1; type: biochemical; details: ATP equal to KM
T5 construct: purchased Thermo Fisher Scientific (Invitrogen) SelectScreen (Z'-LYTE)

TEK (Tie2) = TEK (Tie2) (Homo sapiens, UniProt Q02763); experiment: Kinase panel profiling: TEK; type: biochemical; details: ATP equal to KM
TEK (Tie2), sequence (Q02763 23-1124): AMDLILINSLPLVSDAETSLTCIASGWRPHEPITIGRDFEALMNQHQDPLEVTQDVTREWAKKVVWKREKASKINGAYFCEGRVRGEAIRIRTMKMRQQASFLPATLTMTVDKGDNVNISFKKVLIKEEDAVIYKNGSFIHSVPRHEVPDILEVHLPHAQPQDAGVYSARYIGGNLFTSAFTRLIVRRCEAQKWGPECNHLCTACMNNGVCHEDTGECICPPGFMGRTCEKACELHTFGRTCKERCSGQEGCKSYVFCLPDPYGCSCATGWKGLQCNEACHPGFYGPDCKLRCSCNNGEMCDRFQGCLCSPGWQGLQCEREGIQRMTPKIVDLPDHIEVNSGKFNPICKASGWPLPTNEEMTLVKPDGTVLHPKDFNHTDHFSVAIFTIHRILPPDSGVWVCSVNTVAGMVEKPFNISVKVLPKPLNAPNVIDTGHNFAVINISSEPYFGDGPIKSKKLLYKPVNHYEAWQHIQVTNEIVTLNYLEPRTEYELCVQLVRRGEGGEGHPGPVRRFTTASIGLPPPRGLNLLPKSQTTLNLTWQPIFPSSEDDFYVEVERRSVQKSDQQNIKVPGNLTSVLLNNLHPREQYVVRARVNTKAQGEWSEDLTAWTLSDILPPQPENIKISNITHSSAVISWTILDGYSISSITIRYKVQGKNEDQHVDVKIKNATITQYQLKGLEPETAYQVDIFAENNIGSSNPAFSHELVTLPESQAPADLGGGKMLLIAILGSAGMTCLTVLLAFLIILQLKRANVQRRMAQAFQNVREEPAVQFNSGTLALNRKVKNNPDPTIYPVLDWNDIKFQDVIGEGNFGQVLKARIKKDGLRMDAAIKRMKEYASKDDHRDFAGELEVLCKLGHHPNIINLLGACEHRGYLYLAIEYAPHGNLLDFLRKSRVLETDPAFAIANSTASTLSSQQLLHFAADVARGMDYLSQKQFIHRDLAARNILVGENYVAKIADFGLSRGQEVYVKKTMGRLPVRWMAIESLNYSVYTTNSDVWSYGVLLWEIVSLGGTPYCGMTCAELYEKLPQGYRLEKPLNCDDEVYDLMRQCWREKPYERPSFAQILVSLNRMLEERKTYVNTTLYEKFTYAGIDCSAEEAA

ALK = molecular target: T6, ALK (Homo sapiens, UniProt Q9UM73); experiment: Kinase panel profiling: ALK; type: biochemical; details: ATP equal to KM
T6 construct: purchased Thermo Fisher Scientific (Invitrogen) SelectScreen (Z'-LYTE)

AXL = molecular target: T7, AXL (Homo sapiens, UniProt P30530); experiment: Kinase panel profiling: AXL; type: biochemical; details: ATP equal to KM
T7 construct: purchased Thermo Fisher Scientific (Invitrogen) SelectScreen (Z'-LYTE)

MINK1 = molecular target: T8, MINK1 (Homo sapiens, UniProt Q8N4C8); experiment: Kinase panel profiling: MINK1; type: biochemical; details: ATP equal to KM
T8 construct: purchased Thermo Fisher Scientific (Invitrogen) SelectScreen (Z'-LYTE)

MKNK1 (MNK1) = molecular target: T9, MKNK1 (MNK1) (Homo sapiens, UniProt Q9BUB5); experiment: Kinase panel profiling: MKNK1; type: biochemical; details: ATP equal to KM
T9 construct: purchased Thermo Fisher Scientific (Invitrogen) SelectScreen (Z'-LYTE)
T9 sequence (Q9BUB5 whole entry): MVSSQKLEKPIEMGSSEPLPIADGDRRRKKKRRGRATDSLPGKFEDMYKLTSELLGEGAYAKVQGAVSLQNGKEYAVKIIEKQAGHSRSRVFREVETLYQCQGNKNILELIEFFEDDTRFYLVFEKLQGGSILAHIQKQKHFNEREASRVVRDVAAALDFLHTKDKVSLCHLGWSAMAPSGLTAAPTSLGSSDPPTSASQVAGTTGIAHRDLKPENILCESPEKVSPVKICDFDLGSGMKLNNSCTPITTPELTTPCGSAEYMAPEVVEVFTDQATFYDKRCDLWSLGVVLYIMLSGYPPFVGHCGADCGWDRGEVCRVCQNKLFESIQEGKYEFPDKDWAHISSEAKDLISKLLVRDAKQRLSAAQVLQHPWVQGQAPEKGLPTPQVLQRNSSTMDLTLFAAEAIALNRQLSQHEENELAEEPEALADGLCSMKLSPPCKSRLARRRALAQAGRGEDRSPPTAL

CDK1/cyclin B = molecular target: T10, CDK1/cyclin B (Homo sapiens, UniProt P06493); experiment: Kinase panel profiling: CDK1/cyclin B; type: biochemical; details: ATP equal to KM
T10 construct: purchased Thermo Fisher Scientific (Invitrogen) SelectScreen (Z'-LYTE)
T10 sequence (P06493 whole entry): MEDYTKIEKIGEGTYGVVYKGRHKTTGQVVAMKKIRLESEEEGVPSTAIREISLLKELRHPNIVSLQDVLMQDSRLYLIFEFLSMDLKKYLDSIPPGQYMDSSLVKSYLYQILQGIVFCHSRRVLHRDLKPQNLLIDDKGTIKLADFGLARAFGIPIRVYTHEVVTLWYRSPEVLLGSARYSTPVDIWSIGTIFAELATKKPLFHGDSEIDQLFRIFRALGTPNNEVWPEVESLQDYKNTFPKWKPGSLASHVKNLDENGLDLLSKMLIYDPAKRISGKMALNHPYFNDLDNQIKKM
T10 sequence (P14635 whole entry partner): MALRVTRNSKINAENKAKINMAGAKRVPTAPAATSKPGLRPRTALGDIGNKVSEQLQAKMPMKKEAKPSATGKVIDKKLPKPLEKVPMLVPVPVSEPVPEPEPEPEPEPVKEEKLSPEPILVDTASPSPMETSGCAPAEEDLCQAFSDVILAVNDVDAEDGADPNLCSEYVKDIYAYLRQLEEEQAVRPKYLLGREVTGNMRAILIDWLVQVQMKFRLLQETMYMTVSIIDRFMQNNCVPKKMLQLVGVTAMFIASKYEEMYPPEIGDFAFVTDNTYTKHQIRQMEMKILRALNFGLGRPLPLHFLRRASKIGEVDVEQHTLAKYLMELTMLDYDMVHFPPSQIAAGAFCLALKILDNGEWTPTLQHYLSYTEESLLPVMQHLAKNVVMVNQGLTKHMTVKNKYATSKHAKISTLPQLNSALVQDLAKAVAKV

CSF1R = CSF1R (Homo sapiens, UniProt P07333); experiment: CSF1R enzymatic IC50, Z-LYTE assay platform; type: biochemical
BLK = molecular target: T11, BLK (Homo sapiens, UniProt P51451); experiment: Kinase panel profiling: BLK; type: biochemical; details: ATP equal to KM
T11 construct: purchased Thermo Fisher Scientific (Invitrogen) SelectScreen (Z'-LYTE)

[2] = 1000 nM test concentration, read-out: Average inhibition (%)
[3] = 1000 nM, first data point, read-out: Inhibition (%)
[4] = 1000 nM, second data point, read-out: Inhibition (%)

T1 sequence (P23458 whole entry): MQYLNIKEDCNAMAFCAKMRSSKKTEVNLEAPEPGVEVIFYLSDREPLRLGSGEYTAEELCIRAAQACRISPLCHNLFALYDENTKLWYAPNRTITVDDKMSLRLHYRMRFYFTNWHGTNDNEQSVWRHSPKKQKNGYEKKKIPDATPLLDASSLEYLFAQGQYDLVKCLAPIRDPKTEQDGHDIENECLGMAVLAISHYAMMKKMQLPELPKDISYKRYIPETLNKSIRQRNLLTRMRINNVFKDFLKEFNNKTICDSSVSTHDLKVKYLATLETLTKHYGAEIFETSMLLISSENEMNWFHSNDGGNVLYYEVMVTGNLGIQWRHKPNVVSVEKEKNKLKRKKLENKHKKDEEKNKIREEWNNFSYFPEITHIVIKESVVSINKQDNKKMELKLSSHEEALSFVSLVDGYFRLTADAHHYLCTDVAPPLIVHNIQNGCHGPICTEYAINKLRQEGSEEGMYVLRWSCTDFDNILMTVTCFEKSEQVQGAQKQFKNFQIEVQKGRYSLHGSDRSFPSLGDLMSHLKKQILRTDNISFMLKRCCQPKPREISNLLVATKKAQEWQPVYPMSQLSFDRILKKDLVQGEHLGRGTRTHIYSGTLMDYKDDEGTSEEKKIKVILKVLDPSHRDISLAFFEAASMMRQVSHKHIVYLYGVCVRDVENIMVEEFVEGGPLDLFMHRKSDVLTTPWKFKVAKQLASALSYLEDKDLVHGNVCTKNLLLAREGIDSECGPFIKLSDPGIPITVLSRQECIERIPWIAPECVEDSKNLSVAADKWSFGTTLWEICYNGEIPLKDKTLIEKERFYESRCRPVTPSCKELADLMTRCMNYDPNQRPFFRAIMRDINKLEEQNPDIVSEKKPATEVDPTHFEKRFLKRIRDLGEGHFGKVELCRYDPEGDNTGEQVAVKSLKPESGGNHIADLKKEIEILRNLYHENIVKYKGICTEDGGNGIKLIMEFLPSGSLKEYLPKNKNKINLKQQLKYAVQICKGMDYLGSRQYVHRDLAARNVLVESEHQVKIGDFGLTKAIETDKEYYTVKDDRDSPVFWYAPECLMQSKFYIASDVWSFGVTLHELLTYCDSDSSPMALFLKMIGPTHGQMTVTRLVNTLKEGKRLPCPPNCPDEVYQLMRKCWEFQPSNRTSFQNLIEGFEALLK

- inhibition at 1 µM (JAK1; [2]): 9%
- inhibition at 1 µM (JAK1; [3]): 22%
- inhibition at 1 µM (JAK1; [4]): -3%
- inhibition at 1 µM (LYN A; [2]): 66%
- inhibition at 1 µM (LYN A; [3]): 66%
- fraction unbound [1]: < 0.01
- inhibition at 1 µM (ITK; [2]): 55%
- inhibition at 1 µM (ITK; [3]): 58%
- inhibition at 1 µM (ITK; [4]): 51%
- inhibition at 1 µM (MET (cMet); [2]): 13%
- inhibition at 1 µM (MET (cMet); [3]): 10%
- inhibition at 1 µM (MET (cMet); [4]): 16%
- inhibition at 1 µM (ROCK1; [2]): 0%
- inhibition at 1 µM (ROCK1; [3]): 2%
- inhibition at 1 µM (ROCK1; [4]): -2%
- inhibition at 1 µM (SRC; [2]): 96%
- inhibition at 1 µM (SRC; [3]): 96%
- inhibition at 1 µM (SRC; [4]): 95%
- inhibition at 1 µM (NEK1; [2]): 28%
- inhibition at 1 µM (NEK1; [3]): 28%
- inhibition at 1 µM (TEK (Tie2); [2]): 42%
- inhibition at 1 µM (TEK (Tie2); [3]): 44%
- inhibition at 1 µM (TEK (Tie2); [4]): 40%
- inhibition at 1 µM (ALK; [2]): 24%
- inhibition at 1 µM (ALK; [3]): 24%
- inhibition at 1 µM (ALK; [4]): 25%
- inhibition at 1 µM (AXL; [2]): 16%
- inhibition at 1 µM (AXL; [3]): 16%
- inhibition at 1 µM (MINK1; [2]): 76%
- inhibition at 1 µM (MINK1; [3]): 75%
- inhibition at 1 µM (MINK1; [4]): 77%
- inhibition at 1 µM (MKNK1 (MNK1); [2]): 2%
- inhibition at 1 µM (MKNK1 (MNK1); [3]): 3%
- inhibition at 1 µM (MKNK1 (MNK1); [4]): 1%
- inhibition at 1 µM (CDK1/cyclin B; [2]): 27%
- inhibition at 1 µM (CDK1/cyclin B; [3]): 24%
- inhibition at 1 µM (CDK1/cyclin B; [4]): 29%
- Hill coefficient (CSF1R; Z-LYTE CSF1R IC50 curve): 0.903
- IC50 (CSF1R; Z-LYTE, 10-point titrations in duplicates, ATP equal to KM ca. 10 µM, read-out: CSF1R enz. IC50): 0.4 ± 0.2 nM
- inhibition at 1 µM (BLK; [2]): 69%
- inhibition at 1 µM (BLK; [3]): 69%
SMILES: Cc1cccc(CN(C)c2ncnc3[nH]c(-c4cn(Cc5cccnc5)nn4)cc23)c1 [Compound 27a, N-Methyl-N-(3-methylbenzyl)-6-(1-(pyridin-3-ylmethyl)-1H-1,2,3-triazol-4-yl)-7H-pyrrolo[2,3-d]pyrimidin-4-amine]
